The values that follow come from patent US8759535B2, “Substituted fused imidazole derivatives, pharmaceutical compositions, and methods of use thereof” (High Point Pharmaceuticals, LLC, priority 2010, dated 2014).

Structures can show the parent of a compound that is named as a salt.

The first test deals with HMOX1. The experiment in a line: HMOX1 Protein Assay (immunostaining of HO-1 in NHLF cells, GE InCell 1000). It is filed as cell-based. Conditions: Homo sapiens, fold change above DMSO treated cells, 3 μM compound (asterisk), 16 h. Here is the method:
Cell Culture. Normal Human Fibroblast (NHLF), were obtained from Lonza. Cultures of cells were maintained in Fibroblast Growth Medium (FGM-2) medium supplemented with 2% fetal bovine serum (FBS), Fibroblast Growth Factor (hFGF-B) 0.5 mL, Insulin 0.5 mL, gentamicin/amphotericin-B 0.5 mL at 37° C. in a humidified atmosphere of 5% CO2. Cells were grown to 80% confluence before treating.
HMOX1 Protein Assay. NHLF cells were grown to 80% confluency and harvested by washing once with HEPES and then trypsinized. Equal numbers (2×10^3 cells per well) of NHLF cells were plated in 384 well optilux tissue culture (BD) plates. Cells were incubated overnight in FGM-2 medium prior to exposure to compound. Cells were treated with either vehicle (DMSO) or compound (dissolved in vehicle) for 16 h. Cells were washed 2× with 1×PBS and fixed with 4% Paraformaldyhyde for 15 min. The fixed cells were then permeabalized with 0.1% Triton X-100 and blocked with 5% BSA in 1×PBS 0.05% Tween-20 for 15 min. HO-1 antibody (abcam) was used for immunostaining at 1:300 dilution in 1% BSA in 1×PBS for 1 hour. Cells were washed 2× with 1×PBS and secondary antibody goat anti-mouse Alexa 488 1:400 dilution (Invitrogen); Hoechst 1:2000 (Invitrogen) in 1% BSA in 1×PBS for 1 hour. Plate was washed 5× with 1×PBS and read at Hoechst Ex.360 […]; Alexa 488 Ex.480 Em. 535 using GE InCell 1000. Results analyzed using GE InCell Analyzer software. Heme oxygenase data represents the fold change above DMSO treated cells.
In general, the fold induction data are reported for 5 μM concentration (i.e., μ-moles of compound to total volume, where the solvent is about 99.2% media and 0.8% DMSO). In some instances, the reported data are for 3 μM concentration, which are indicated by an asterisk (*).
In turn, `COCCOCCNC(=O)c1ccc2c(c1)nc(Nc1nc3ccc(C(F)(F)F)cc3s1)n2C` [Example 262, 1-Methyl-2-(6-trifluoromethyl-benzothiazol-2-ylamino)-1H-benzoimidazole-5-carboxylic acid [2-(2-methoxy-ethoxy)-ethyl]-amide] came in with a fold induction at 3 µM of 40.

Still in this test, the particulars now being: Homo sapiens, fold change above DMSO treated cells, 5 μM compound, 16 h.
In turn, `Cn1c(Nc2nc3ccc(OC(F)(F)F)cc3s2)nc2cc(C(=O)NCC(=O)N3CCC[C@H]3CO)ccc21` [Example 406, 1-Methyl-2-(6-trifluoromethoxy-benzothiazol-2-ylamino)-1H-benzoimidazole-5-carboxylic acid [2-((S)-2-hydroxymethyl-pyrrolidin-1-yl)-2-oxo-ethyl]-amide] had a fold induction at 5 µM of 31.

The compound `COCC(C)NC(=O)c1ccc2c(c1)nc(Nc1nc3ccc(OC(F)(F)F)cc3s1)n2C` (stereo not shown) [Example 20, 1-Methyl-2-(6-trifluoromethoxy-benzothiazol-2-ylamino)-1H-benzoimidazole-5-carboxylic acid (2-methoxy-1-methyl-ethyl)-amide] yielded a fold induction at 5 µM of 18.6.

Compound `COCCn1c(Nc2nc3ccc(Cl)cc3s2)nc2cc(C(=O)NCC(=O)N3CCC(CO)CC3)ccc21` [Example 443, 2-(6-Chloro-benzothiazol-2-ylamino)-1-(2-methoxy-ethyl)-1H-benzoimidazole-5-carboxylic acid [2-(4-hydroxymethyl-piperidin-1-yl)-2-oxo-ethyl]-amide] gave a fold induction at 5 µM of 39.8.

Compound `Cn1c(Nc2nc3cc(F)c(F)cc3s2)nc2cc(C(=O)NCCO)ccc21` [Example 36, 2-(5,6-Difluoro-benzothiazol-2-ylamino)-1-methyl-1H-benzoimidazole-5-carboxylic acid (2-hydroxy-ethyl)-amide] registered a fold induction at 5 µM of 13.8.

For the compound `CN1CC[C@H](NC(=O)c2ccc3c(c2)nc(Nc2nc4ccc(Cl)cc4s2)n3C)C1` [Example 317, 2-(6-Chloro-benzothiazol-2-ylamino)-1-methyl-1H-benzoimidazole-5-carboxylic acid ((S)-1-methyl-pyrrolidin-3-yl)amide], the fold induction at 5 µM stood at 16.3.

With `Cn1c(Nc2nc3ccc(Cl)cc3s2)nc2cc(C(=O)NCC(=O)NC3CCOCC3)ccc21` [Example 385, 2-(6-Chloro-benzothiazol-2-ylamino)-1-methyl-1H-benzoimidazole-5-carboxylic acid [(tetrahydro-pyran-4-ylcarbamoyl)-methyl]-amide], the fold induction at 5 µM was 24.5.

For `CN(C)[C@H]1CCN(C(=O)CNC(=O)c2ccc3c(c2)nc(Nc2nc4ccc(OC(F)(F)F)cc4s2)n3C)C1` [Example 416, 1-Methyl-2-(6-trifluoromethoxy-benzothiazol-2-ylamino)-1H-benzoimidazole-5-carboxylic acid [2-((S)-3-dimethylamino-pyrrolidin-1-yl)-2-oxo-ethyl]-amide], the fold induction at 5 µM was 96.6.

Compound `CN(C(=O)CNC(=O)c1ccc2c(c1)nc(Nc1nc3ccc(Cl)cc3s1)n2C)C1CCNC1` (stereo not shown) [Example 394, 2-(6-Chloro-benzothiazol-2-ylamino)-1-methyl-1H-benzoimidazole-5-carboxylic acid [(methyl-pyrrolidin-3-yl-carbamoyl)-methyl]-amide hydrochloride] showed a fold induction at 5 µM of 37.6.

In turn, `CNC1CCN(C(=O)CNC(=O)c2ccc3c(c2)nc(Nc2nc4ccc(OC(F)(F)F)cc4s2)n3C)CC1` [Example 453, 1-Methyl-2-(6-trifluoromethoxy-benzothiazol-2-ylamino)-1H-benzoimidazole-5-carboxylic acid [2-(4-methylamino-piperidin-1-yl)-2-oxo-ethyl]-amide hydrochloride] had a fold induction at 5 µM of 81.1.

As for `Cn1c(Nc2nc3ccc(OC(F)(F)F)cc3s2)nc2cc(C(=O)NCCOCCN)ccc21` [Example 268, 1-Methyl-2-(6-trifluoromethoxy-benzothiazol-2-ylamino)-1H-benzoimidazole-5-carboxylic acid [2-(2-amino-ethoxy)-ethyl]-amide], the fold induction at 5 µM worked out at 28.4.

As to `C[C@@H](O)CN1CCC(NC(=O)c2ccc3c(c2)nc(Nc2nc4ccc(OC(F)(F)F)cc4s2)n3C)C1` (stereo partly drawn) [Example 294, 1-Methyl-2-(6-trifluoromethoxy-benzothiazol-2-ylamino)-1H-benzoimidazole-5-carboxylic acid [1-((R)-2-hydroxy-propyl)-pyrrolidin-3-yl]-amide], the fold induction at 5 µM stood at 29.4.

Compound `Cc1ccc2nc(Nc3nc4cc(C(=O)NCC(=O)N(C)C)ccc4n3C)sc2c1` [Example 363, 1-Methyl-2-(6-methyl-benzothiazol-2-ylamino)-1H-benzoimidazole-5-carboxylic acid dimethylcarbamoylmethyl-amide] returned a fold induction at 5 µM of 10.

Regarding `C[C@@H](O)CNC(=O)c1ccc2c(c1)nc(Nc1nc3ccc(OC(F)(F)F)cc3s1)n2C` [Example 51, 1-Methyl-2-(6-trifluoromethoxy-benzothiazol-2-ylamino)-1H-benzoimidazole-5-carboxylic acid ((R)-2-hydroxy-propyl)-amide], the fold induction at 5 µM is 9.9.

In the case of `Cc1nc(-c2ccc3nc(Nc4nc5cc(OC(F)(F)F)ccc5s4)n(C)c3c2)n[nH]1` [Example 198, [1-Methyl-6-(5-methyl-1H-1,2,4-triazol-3-yl)-1H-benzimidazol-2-yl]-(5-trifluoromethoxy-benzothiazol-2-yl)-amine], the fold induction at 5 µM was 12.

`Cn1c(Nc2nc3ccc(Cl)cc3s2)nc2cc(C(=O)NC3CCN(S(C)(=O)=O)CC3)ccc21` [Example 320, 2-(6-Chloro-benzothiazol-2-ylamino)-1-methyl-1H-benzoimidazole-5-carboxylic acid (1-methanesulfonyl-piperidin-4-yl)-amide] had a fold induction at 5 µM of 20.

With `CN(C)[C@@H]1CCN(C(=O)CNC(=O)c2ccc3c(c2)nc(Nc2nc4ccc(Cl)cc4s2)n3C)C1` [Example 417, 2-(6-Chloro-benzothiazol-2-ylamino)-1-methyl-1H-benzoimidazole-5-carboxylic acid [2-((R)-3-dimethylamino-pyrrolidin-1-yl)-2-oxo-ethyl]-amide], the fold induction at 5 µM worked out at 62.8.

On to `CN[C@H]1CCN(C(=O)CNC(=O)c2ccc3c(c2)nc(Nc2nc4ccc(OC(F)(F)F)cc4s2)n3C)C1` [Example 414, 1-Methyl-2-(6-trifluoromethoxy-benzothiazol-2-ylamino)-1H-benzoimidazole-5-carboxylic acid [2-((S)-3-methylamino-pyrrolidin-1-yl)-2-oxo-ethyl]-amide hydrochloride], for which the fold induction at 5 µM was determined as 25.7.

`CCCNC(=O)c1ccc2c(c1)nc(Nc1nc3ccc(OC(F)(F)F)cc3s1)n2C` [Example 12, 1-Methyl-2-(6-trifluoromethoxy-benzothiazol-2-ylamino)-1H-benzoimidazole-5-carboxylic acid propylamide] showed a fold induction at 5 µM of 16.2.

Take `Cn1c(Nc2nc3ccc(OC(F)(F)F)cc3s2)nc2cc(C(=O)NCC3CCCO3)ccc21` (stereo not shown) [Example 18, 1-Methyl-2-(6-trifluoromethoxy-benzothiazol-2-ylamino)-1H-benzoimidazole-5-carboxylic acid (tetrahydro-furan-2-ylmethyl)-amide]: the fold induction at 5 µM stood at 20.1.

Consider `Cn1c(Nc2nc3ccc(Cl)cc3s2)nc2cc(C(=O)N[C@H]3CCCNC3)ccc21` [Example 310, 2-(6-Chloro-benzothiazol-2-ylamino)-1-methyl-1H-benzoimidazole-5-carboxylic acid (S)-piperidin-3-ylamide hydrochloride], for which the fold induction at 5 µM came to 24.6.

In turn, `Cn1c(Nc2nc3ccc(Cl)cc3s2)nc2cc(C(=O)NCCC#N)ccc21` [Example 213, 2-(6-Chloro-benzothiazol-2-ylamino)-1-methyl-1H-benzoimidazole-5-carboxylic acid (2-cyano-ethyl)-amide] registered a fold induction at 5 µM of 48.6.

`CN(C)C1CCN(C(=O)CNC(=O)c2ccc3c(c2)nc(Nc2nc4ccc(Cl)cc4s2)n3C)CC1` [Example 456, 2-(6-Chloro-benzothiazol-2-ylamino)-1-methyl-1H-benzoimidazole-5-carboxylic acid [2-(4-dimethylamino-piperidin-1-yl)-2-oxo-ethyl]-amide]: the fold induction at 5 µM stood at 67.3.

The compound `Cn1c(Nc2nc3ccc(OC(F)(F)F)cc3s2)nc2cc(C(=O)NCC(=O)N3CCN(C(=O)OC(C)(C)C)CC3)ccc21` [Example 142, 4-(2-{[1-Methyl-2-(6-trifluoromethoxy-benzothiazol-2-ylamino)-1H-benzimidazole-5-carbonyl]-amino}-acetyl)-piperazine-1-carboxylic acid tert-butyl ester] displayed a fold induction at 5 µM of 15.2.

`Cn1c(Nc2nc3ccc(Cl)cc3s2)nc2cc(C(=O)NCC(=O)N3CCN(S(C)(=O)=O)CC3)ccc21` [Example 429, 2-(6-Chloro-benzothiazol-2-ylamino)-1-methyl-1H-benzoimidazole-5-carboxylic acid [2-(4-methanesulfonyl-piperazin-1-yl)-2-oxo-ethyl]-amide] had a fold induction at 5 µM of 21.4.
